Organism: Rattus norvegicus
Experiment: Open TG-GATES - Regimen: Single
Format: toxicity, organism-based, Sprague-Dawley
Parameters: regimen Single, gender Male, age 6 weeks
Settings: in vivo, po, 0 mg/kg, route gavage, dose level Control; for APTT / Bas / Eos / Fbg / Hb / Ht / Lym / MCH / MCHC / MCV / Mono / Neu / PT / Plat / RBC / Ret / WBC: tissue Blood; for KIDNEY_L / KIDNEY_R / KIDNEY_TOTAL: tissue Kidney; for LIVER: tissue Liver; for ALP / ALT / AST / BUN / CRE / Ca / Cl / DBIL / GLC / IP / K / LDH / Na / PL / RALB / TBIL / TC / TG / TP / gamma-GTP: tissue Plasma

## COc1cc([C@@H]2c3cc4c(cc3[C@@H](O[C@@H]3O[C@@H]5CO[C@@H](C)O[C@H]5[C@H](O)[C@H]3O)[C@H]3COC(=O)[C@H]23)OCO4)cc(OC)c1O [ETOPOSIDE]
3 h
  TERMINAL_BW: 199.4 g
  APTT: 17.1 s
  Bas: 0%
  Eos: 1.2%
  Fbg: 192.2 mg/dL
  Hb: 13.3 g/dL
  Ht: 39.3%
  Lym: 74.8%
  MCH: 22.4 pg
  MCHC: 33.8%
  MCV: 66.2 fL
  Mono: 8%
  Neu: 15.8%
  PT: 12.2 s
  Plat: 113.5 x10_4/uL
  RBC: 594.2 x10_4/ul
  Ret: 10.6%
  WBC: 85 x10_2/uL
  KIDNEY_L: 1 g
  KIDNEY_R: 1 g
  KIDNEY_TOTAL: 2 g
  LIVER: 9.5 g
  ALP: 857.8 IU/L
  ALT: 32.8 IU/L
  AST: 67.6 IU/L
  BUN: 11.8 mg/dL
  CRE: 0.5 mg/dL
  Ca: 10.4 mg/dL
  Cl: 105 meq/L
  DBIL: 0.034 mg/dL
  GLC: 197.6 mg/dL
  IP: 9.1 mg/dL
  K: 4.7 meq/L
  LDH: 97.4 IU/L
  Na: 141.6 meq/L
  PL: 126.6 mg/dL
  RALB: 3.4 g/dL
  TBIL: 0.3 mg/dL
  TC: 71.8 mg/dL
  TG: 43 mg/dL
  TP: 5.2 g/dL
  gamma-GTP: 1 IU/L
6 h
  TERMINAL_BW: 198 g
  APTT: 16.6 s
  Bas: 0%
  Eos: 0.8%
  Fbg: 201.6 mg/dL
  Hb: 13.4 g/dL
  Ht: 39.7%
  Lym: 82.4%
  MCH: 22 pg
  MCHC: 33.7%
  MCV: 65.3 fL
  Mono: 5.6%
  Neu: 11.2%
  PT: 11.9 s
  Plat: 117.8 x10_4/uL
  RBC: 607.8 x10_4/ul
  Ret: 9.8%
  WBC: 93.7 x10_2/uL
  KIDNEY_L: 0.9 g
  KIDNEY_R: 0.9 g
  KIDNEY_TOTAL: 1.8 g
  LIVER: 9.1 g
  ALP: 946.6 IU/L
  ALT: 36 IU/L
  AST: 65.2 IU/L
  BUN: 11.6 mg/dL
  CRE: 0.6 mg/dL
  Ca: 10.6 mg/dL
  Cl: 105 meq/L
  DBIL: 0.016 mg/dL
  IP: 10.5 mg/dL
  K: 4.8 meq/L
  LDH: 65.8 IU/L
  Na: 142.4 meq/L
  PL: 132.8 mg/dL
  RALB: 3.3 g/dL
  TBIL: 0.4 mg/dL
  TC: 72.8 mg/dL
  TG: 68.4 mg/dL
  TP: 5.2 g/dL
  gamma-GTP: 1 IU/L
9 h
  TERMINAL_BW: 194.1 g
  APTT: 16.9 s
  Bas: 0%
  Eos: 1.2%
  Fbg: 206 mg/dL
  Hb: 13.4 g/dL
  Ht: 39.7%
  Lym: 74.4%
  MCH: 22.2 pg
  MCHC: 33.9%
  MCV: 65.6 fL
  Mono: 9.8%
  Neu: 15%
  PT: 10.9 s
  Plat: 117.1 x10_4/uL
  RBC: 604.6 x10_4/ul
  Ret: 9.1%
  WBC: 71.2 x10_2/uL
  KIDNEY_L: 0.9 g
  KIDNEY_R: 0.9 g
  KIDNEY_TOTAL: 1.9 g
  LIVER: 8.4 g
  ALP: 752.2 IU/L
  ALT: 29.8 IU/L
  AST: 58.2 IU/L
  BUN: 10.4 mg/dL
  CRE: 0.5 mg/dL
  Ca: 10.6 mg/dL
  Cl: 107.6 meq/L
  DBIL: 0.022 mg/dL
  GLC: 190.6 mg/dL
  IP: 10.1 mg/dL
  K: 4.6 meq/L
  LDH: 59.2 IU/L
  Na: 144.6 meq/L
  PL: 127.4 mg/dL
  RALB: 3.4 g/dL
  TBIL: 0.4 mg/dL
  TC: 71.6 mg/dL
  TG: 28.4 mg/dL
  TP: 5.4 g/dL
  gamma-GTP: 0.8 IU/L
24 h
  TERMINAL_BW: 215.6 g
  APTT: 16.3 s
  Bas: 0%
  Eos: 1.2%
  Fbg: 207.6 mg/dL
  Hb: 13.1 g/dL
  Ht: 38.4%
  Lym: 78.2%
  MCH: 22.7 pg
  MCHC: 34.1%
  MCV: 66.6 fL
  Mono: 6%
  Neu: 14.6%
  PT: 11.6 s
  Plat: 107.4 x10_4/uL
  RBC: 578 x10_4/ul
  Ret: 8.8%
  WBC: 94.9 x10_2/uL
  KIDNEY_L: 1 g
  KIDNEY_R: 1 g
  KIDNEY_TOTAL: 2 g
  LIVER: 10.9 g
  ALP: 866 IU/L
  ALT: 38.2 IU/L
  AST: 68.2 IU/L
  CRE: 0.6 mg/dL
  Ca: 10.9 mg/dL
  Cl: 104.6 meq/L
  DBIL: 0.03 mg/dL
  GLC: 196.6 mg/dL
  IP: 7.7 mg/dL
  K: 4.8 meq/L
  LDH: 85.2 IU/L
  Na: 141.4 meq/L
  PL: 161.6 mg/dL
  RALB: 3.6 g/dL
  TBIL: 0.3 mg/dL
  TC: 92.2 mg/dL
  TG: 84.4 mg/dL
  TP: 5.6 g/dL
  gamma-GTP: 1.6 IU/L
